The conditions of series [1]: based on the safety data sheet (SDS); cited from earlier work.

Regarding `[O]=[Mg]` [MgO], the “Solubility in brine (in words)” value was “insoluble”.

As to `[Cl-].[Cl-].[Mg+2]` [magnesium chloride], in series [1], the “Biodegradability (in words)” value is reported as “good biodegradability” and the “Toxicity as an individual substance (in words)” value is reported as “non-toxic”.

These data come from patent US20230265336A1, “COMPOSITION WITH FOAMING PROPERTIES” (priority 2020, published 2023).
